The values below come from patent US20230017532A1 (Hoffmann-La Roche Inc., priority 2018, published 2023).

Usually IC90 stands for the point of the concentration-response curve where the effect stands at 90%.

Counter-ions that a name gives are not always drawn.

The test system of the test is Acinetobacter baumannii ATCC17978. As to the kind of experiment: Antimicrobial susceptibility testing: 90% growth inhibitory concentration (IC90) determination, Iso-Sensitest broth, OD 600 nm. The format is cell-based. Particulars: Acinetobacter baumannii, ATCC17978, 16 h, 90% growth inhibitory concentration, Acinetobacter baumannii ATCC17978, Iso-Sensitest broth, OD 600 nm over 16 h; read-out: ATCC 17978 IC90. A digest of the protocol:
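Growth of bacteria (~5×10^5 CFU/ml, Iso-Sensitest medium, 35±2 °C) was followed by OD at 600 nm at 20-min intervals over 16 h against a 10-point twofold compound series (e.g. 50–0.097 μM final). Concentration giving 90% inhibition in log phase was reported.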
Regarding `Cc1cc(Nc2nccn3c(-c4ccc(Cl)c(F)c4F)cnc23)ccc1C(=O)NCCNCCN` [Example 122, N-[2-(2-aminoethylamino)ethyl]-4-[[3-(4-chloro-2,3-difluorophenyl)imidazo[1,2-a]pyrazin-8-yl]amino]-2-methylbenzamide; hydrochloride], the IC90 came to 620 nM.
For `Cc1cc(Nc2nccn3c(-c4ccc(OCC#CCN)cc4)cnc23)ccc1C(=O)NCCOCCN` [Example 123, 4-[[3-[4-(4-aminobut-2-ynoxy)phenyl]imidazo[1,2-a]pyrazin-8-yl]amino]-N-[2-(2-aminoethoxy)ethyl]-2-methylbenzamide; formic acid], the IC90 stood at 630 nM.
On to `COc1ccc(-c2cnc3c(Nc4ccc(C(=O)NCCCOCC(=O)N5CCOC(CN)C5)c(C)c4)nccn23)cc1F` (stereo not shown) [Example 124, N-[3-[2-[2-(aminomethyl)morpholin-4-yl]-2-oxoethoxy]propyl]-4-[[3-(3-fluoro-4-methoxyphenyl)imidazo[1,2-a]pyrazin-8-yl]amino]-2-methylbenzamide; hydrochloride], for which the concentration for an effect of 90% (IC90) was found to be 640 nM.
For `Cc1cc(Nc2nccn3c(-c4ccc(OC(F)F)cc4)cnc23)ccc1C(=O)N(C)CCOCCN1CCNCC1` [Example 126, 4-[[3-[4-(difluoromethoxy)phenyl]imidazo [1,2-a]pyrazin-8-yl]amino]-N,2-dimethyl-N-[2-(2-piperazin-1-ylethoxy)ethyl] benzamide], the IC90 came to 670 nM.
Consider `Cc1cc(Nc2nccn3c(-c4ccc(OC(F)F)cc4)cnc23)ccc1C(=O)NCCOCCNC(=O)CN(C)C` [Example 127, 4-[[3-[4-(difluoromethoxy)phenyl]imidazo [1,2-a]pyrazin-8-yl]amino]-N-[2-[2-[[2-(dimethyl-amino)acetyl]amino]ethoxy]ethyl]-2-methylbenzamide], for which the IC90 was determined as 670 nM.
The value for `CCNCCCN(CC)C(=O)c1ccc(Nc2nccn3c(-c4ccc(OC)c(F)c4)cnc23)cc1C` [Example 128, N-ethyl-N-[3-(ethylamino)propyl]-4-[[3-(3-fluoro-4-methoxyphenyl)imidazo[1,2-a]pyrazin-8-yl]amino]-2-methyl-benzamide] was 3400 nM.
The value for `Cc1cc(Nc2nccn3c(-c4ccc(OC(F)F)cc4)cnc23)ccc1C(=O)NCCOCCO` [Example 129, 4-[[3-[4-(difluoromethoxy)phenyl]imidazo [1,2-a]pyrazin-8-yl]amino]-N-[2-(2-hydroxyethoxy)ethyl]-2-methylbenzamide] was 720 nM; that for `COc1ccc(-c2cnc3c(Nc4ccc(C(=O)N(C)CCOCCN5CCN(C6CC6)CC5)c(C)c4)nccn23)cc1F` [Example 130, N-[2-[2-(4-cyclopropyl-piperazin-1-yl)ethoxy]ethyl]-4-[[3-(3-fluoro-4-methoxyphenyl)imidazo[1,2-a]pyrazin-8-yl]amino]-N,2-dimethyl-benzamide] was 760 nM; that for `COc1ccc(-c2cnc3c(Nc4ccc(C(=O)N(C)CCOCCN5CCNCC5)c(C)c4)nccn23)cc1F` [Example 131, 4-[[3-(3-fluoro-4-methoxyphenyl)imidazo[1,2-a]pyrazin-8-yl]amino]-N,2-dimethyl-N-[2-(2-piperazin-1-ylethoxy)ethyl]benzamide] was 770 nM.
For `Cc1cc(Nc2nccn3c(-c4ccc(OC(F)F)cc4)cnc23)ccc1C(=O)NCCOCCS(C)(=O)=O` [Example 132, 4-[[3-[4-(difluoro-methoxy)phenyl]imidazo [1,2-a]pyrazin-8-yl]amino]-2-methyl-N-[2-(2-methylsulfonyl-ethoxy)ethyl] benzamide], the IC90 worked out at 780 nM.
For the compound `COc1ccc(-c2cnc3c(Nc4ccc(C(=O)N(C)CCOCCN5CCNCC5)c(C)c4)nccn23)cc1` [Example 133, formic acid; 4-[[3-(4-methoxyphenyl)imidazo[1,2-a]pyrazin-8-yl]amino]-N,2-dimethyl-N-[2-(2-piperazin-1-ylethoxy)ethyl] benzamide], the IC90 came out at 790 nM.
The value for `Cc1cc(Nc2nccn3c(-c4ccc(OC(F)F)cc4)cnc23)ccc1C(=O)NCCOCCN1CCNCC1` [Example 134, 4-[[3-[4-(difluoromethoxy)phenyl]imidazo [1,2-a]pyrazin-8-yl]amino]-2-methyl-N-[2-(2-piperazin-1-ylethoxy)ethyl] benzamide; hydrochloride] was 800 nM.
As for `COc1ccc(-c2cnc3c(Nc4ccc(C(=O)NCCOCC(=O)N5CCOC(CN)C5)c(C)c4)nccn23)cc1F` (stereo not shown) [Example 135, N-[2-[2-[2-(aminomethyl)morpholin-4-yl]-2-oxoethoxy]ethyl]-4-[[3-(3-fluoro-4-methoxyphenyl)imidazo[1,2-a]pyrazin-8-yl]amino]-2-methylbenzamide; hydrochloride], the figure is 820 nM; as for `Cc1cc(Nc2nccn3c(-c4ccc(OC(F)F)cc4)cnc23)ccc1C(=O)N(C)CCOCCN` [Example 136, N-[2-(2-aminoethoxy)ethyl]-4-[[3-[4-(difluoro-methoxy)phenyl]imidazo [1,2-a]pyrazin-8-yl]amino]-N,2-dimethyl-benzamide; hydrochloride], 860 nM; as for `COc1ccc(-c2cnc3c(Nc4ccc(C(=O)N(C)CCOCCN5CCOC(CN)C5)c(C)c4)nccn23)cc1F` (stereo not shown) [Example 137, N-[2-[2-[2-(aminomethyl)morpholin-4-yl]ethoxy]ethyl]-4-[[3-(3-fluoro-4-methoxyphenyl)imidazo[1,2-a]pyrazin-8-yl]amino]-N,2-dimethyl-benzamide; hydrochloride], 940 nM.
With `Cc1cc(Nc2nccn3c(-c4ccc(Cl)cc4)cnc23)ccc1C(=O)N(C)CCOCCN` [Example 138, N-[2-(2-aminoethoxy)ethyl]-4-[[3-(4-chlorophenyl)imidazo[1,2-a]pyrazin-8-yl]amino]-N,2-dimethyl-benzamide; hydrochloride], the IC90 is 960 nM.
As for `Cc1cc(Nc2nccn3c(-c4ccc(OC(F)F)cc4)cnc23)ccc1C(=O)NCCOCCOCCOCCN=[N+]=[N-]` [Example 139, N-[2-[2-[2-(2-azidoethoxy)ethoxy]ethoxy]ethyl]-4-[[3-[4-(difluoro-methoxy)phenyl]imidazo [1,2-a]pyrazin-8-yl]amino]-2-methylbenzamide], the figure is 1000 nM; as for `COc1ccc(-c2cnc3c(Nc4ccc(C(=O)N(C)CCOCCN5CCN(C=O)CC5)c(C)c4)nccn23)cc1F` [Example 140, 4-[[3-(3-fluoro-4-methoxyphenyl)imidazo[1,2-a]pyrazin-8-yl]amino]-N-[2-[2-(4-formylpiperazin-1-yl)ethoxy]ethyl]-N,2-dimethyl-benzamide], 1000 nM.
Consider `CCCCC(=O)NCCOCCNC(=O)c1ccc(Nc2nccn3c(-c4ccc(OC)cc4)cnc23)cc1C` [Example 141, 4-[[3-(4-methoxyphenyl)imidazo[1,2-a]pyrazin-8-yl]amino]-2-methyl-N-[2-[2-(pentanoylamino)ethoxy]ethyl] benzamide], for which the IC90 was determined as 1000 nM.
The value for `Cc1cc(Nc2nccn3c(-c4ccc(OC(F)F)cc4)cnc23)ccc1C(=O)NCCOCCNC(=O)CN1CCN(C)CC1` [Example 143, 4-[[3-[4-(difluoro-methoxy)phenyl]imidazo [1,2-a]pyrazin-8-yl]amino]-2-methyl-N-[2-[2-[[2-(4-methylpiperazin-1-yl)acetyl]amino]ethoxy]ethyl] benzamide] was 1200 nM; that for `COc1ccc(-c2cnc3c(Nc4ccc(C(=O)N(C)CCN(C)CCO)c(C)c4)nccn23)cc1F` [Example 144, 4-[[3-(3-fluoro-4-methoxyphenyl)imidazo[1,2-a]pyrazin-8-yl]amino]-N-[2-[2-hydroxyethyl (methyl)amino]ethyl]-N,2-dimethyl-benzamide] was 1900 nM.
As for `COc1ccc(-c2cnc3c(Nc4ccc(C(=O)NCCOCCN)c(F)c4)nccn23)cc1` [Example 145, N-[2-(2-aminoethoxy)ethyl]-2-fluoro-4-[[3-(4-methoxyphenyl)imidazo[1,2-a]pyrazin-8-yl]amino] benzamide; hydrochloride], the figure is 1200 nM; as for `Cc1cc(Nc2nccn3c(-c4ccc(OC(F)F)cc4)cnc23)ccc1C(=O)NCCOCCNC(=O)CN(CCO)CCO` [Example 146, N-[2-[2-[[2-[bis(2-hydroxyethyl)amino]acetyl]amino]ethoxy]ethyl]-4-[[3-[4-(difluoromethoxy)phenyl]imidazo [1,2-a]pyrazin-8-yl]amino]-2-methylbenzamide], 1200 nM.
For the compound `COc1ccc(-c2cnc3c(Nc4ccc(C(=O)NCCOCCn5nccn5)c(C)c4)nccn23)cc1` [Example 147, 4-[[3-(4-methoxyphenyl)imidazo[1,2-a]pyrazin-8-yl]amino]-2-methyl-N-[2-[2-(triazol-2-yl)ethoxy)ethyl] benzamide], the IC90 was 1300 nM.
With `COc1ccc(-c2cnc3c(Nc4ccc(C(=O)NCCOCCNC(=O)CO)c(C)c4)nccn23)cc1` [Example 148, N-[2-[2-[(2-hydroxyacetyl)amino]ethoxy]ethyl]-4-[[3-(4-methoxyphenyl)imidazo[1,2-a]pyrazin-8-yl]amino]-2-methylbenzamide], the IC90 came to 1300 nM.
`Cc1cc(Nc2nccn3c(-c4ccc(OC(F)F)cc4)cnc23)ccc1C(=O)NCCOCCOCCO` [Example 149, 4-[[3-[4-(difluoro-methoxy)phenyl]imidazo [1,2-a]pyrazin-8-yl]amino]-N-[2-[2-(2-hydroxyethoxy)ethoxy]ethyl]-2-methylbenzamide]: the concentration for an effect of 90% (IC90) stood at 1300 nM.
As for `COCCOCCOCCNC(=O)c1ccc(Nc2nccn3c(-c4ccc(OC(F)F)cc4)cnc23)cc1C` [Example 150, 4-[[3-[4-(difluoro-methoxy)phenyl]imidazo [1,2-a]pyrazin-8-yl]amino]-N-[2-[2-(2-methoxy-ethoxy)ethoxy]ethyl]-2-methylbenzamide], the figure is 1500 nM.
`COc1ccc(-c2cnc3c(Nc4ccc(C(=O)N(C)CCOCCN5CCN(C6COC6)CC5)c(C)c4)nccn23)cc1F` [Example 151, 4-[[3-(3-fluoro-4-methoxyphenyl)imidazo[1,2-a]pyrazin-8-yl]amino]-N,2-dimethyl-N-[2-[2-[4-(oxetan-3-yl)piperazin-1-yl]ethoxy]ethyl] benzamide]: the concentration for an effect of 90% (IC90) amounted to 1600 nM.
